Source: the supplement of paper PMC10307832

How the values were obtained:
Assay in all cases: relative viability (nuclei count vs DMSO), 5 days (fraction); higher = more cells survive
[1] = test system: 201T
Outline: (§1)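 One day after seeding in 1536-well plates, lung cancer cell lines were dosed by pin tool. Dosing was either single-drug or a fixed anchor-drug dose plus five library-drug doses (not always all listed) in √10 steps. After 5 days, nuclei were stained in one fix-and-stain step and counted on 4× images, and relative viability is the nuclei count of treated wells over that of vehicle wells, given as the median of duplicate plates.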

[2] = test system: BEN
Outline: as §1

[3] = test system: COR-L 105
Outline: as §1

[4] = test system: EKVX
Outline: as §1

[5] = test system: EPLC-272H
Outline: as §1

[6] = test system: H3255
Outline: as §1

[7] = test system: HCC-44
Outline: as §1

[8] = test system: HCC-827
Outline: as §1

[9] = test system: HOP-62
Outline: as §1

[10] = test system: LCLC-97TM1
Outline: as §1

[11] = test system: LOU-NH91
Outline: as §1

[12] = test system: LU99A
Outline: as §1

[13] = test system: NCI-H1395
Outline: as §1

[14] = test system: NCI-H1437
Outline: as §1

[15] = test system: NCI-H1666
Outline: as §1

[16] = test system: NCI-H1975
Outline: as §1

[17] = test system: NCI-H2085
Outline: as §1

[18] = test system: NCI-H2087
Outline: as §1

[19] = test system: NCI-H2126
Outline: as §1

[20] = test system: NCI-H358
Outline: as §1

[21] = test system: NCI-H647
Outline: as §1

[22] = test system: PC-3 [JPC-3]
Outline: as §1

[23] = test system: SW 1573
Outline: as §1

## Clc1ccc(Nc2nnc(Cc3ccncc3)c3ccccc23)cc1 [Vatalanib] + Cc1nc(NC(=O)N2CCC[C@H]2C(N)=O)sc1-c1ccnc(C(C)(C)C(F)(F)F)c1 [Alpelisib] (partner 2 µM)
[1]; first compound 0.04 µM
  relative viability: 0.984
[1]; first compound 0.1265 µM
  relative viability: 1.03
[1]; first compound 0.4 µM
  relative viability: 1.04
[1]; first compound 1.265 µM
  relative viability: 1.03
[1]; first compound 4 µM
  relative viability: 1.07
[2]; first compound 0.04 µM
  relative viability: 1.05
[2]; first compound 0.1265 µM
  relative viability: 0.945
[2]; first compound 0.4 µM
  relative viability: 1.09
[2]; first compound 1.265 µM
  relative viability: 1.18
[2]; first compound 4 µM
  relative viability: 1.04
[3]; first compound 0.04 µM
  relative viability: 0.994
[3]; first compound 0.1265 µM
  relative viability: 0.994
[3]; first compound 0.4 µM
  relative viability: 1.15
[3]; first compound 1.265 µM
  relative viability: 1.12
[3]; first compound 4 µM
  relative viability: 1.04
[4]; first compound 0.04 µM
  relative viability: 0.939
[4]; first compound 0.1265 µM
  relative viability: 0.821
[4]; first compound 0.4 µM
  relative viability: 0.824
[4]; first compound 1.265 µM
  relative viability: 0.829
[4]; first compound 4 µM
  relative viability: 0.785
[5]; first compound 0.04 µM
  relative viability: 0.824
[5]; first compound 0.1265 µM
  relative viability: 0.963
[5]; first compound 0.4 µM
  relative viability: 1.08
[5]; first compound 1.265 µM
  relative viability: 1.05
[5]; first compound 4 µM
  relative viability: 1.06
[6]; first compound 0.04 µM
  relative viability: 0.649
[6]; first compound 0.1265 µM
  relative viability: 0.666
[6]; first compound 0.4 µM
  relative viability: 0.514
[6]; first compound 1.265 µM
  relative viability: 0.705
[6]; first compound 4 µM
  relative viability: 0.618
[7]; first compound 0.04 µM
  relative viability: 0.803
[7]; first compound 0.1265 µM
  relative viability: 0.815
[7]; first compound 0.4 µM
  relative viability: 0.777
[7]; first compound 1.265 µM
  relative viability: 0.81
[7]; first compound 4 µM
  relative viability: 0.745
[8]; first compound 0.04 µM
  relative viability: 0.991
[8]; first compound 0.1265 µM
  relative viability: 1.01
[8]; first compound 0.4 µM
  relative viability: 0.828
[8]; first compound 1.265 µM
  relative viability: 1
[8]; first compound 4 µM
  relative viability: 0.786
[9]; first compound 0.04 µM
  relative viability: 0.981
[9]; first compound 0.4 µM
  relative viability: 1.07
[9]; first compound 1.265 µM
  relative viability: 1.12
[9]; first compound 4 µM
  relative viability: 0.855
[10]; first compound 0.04 µM
  relative viability: 0.248
[10]; first compound 0.1265 µM
  relative viability: 0.2
[10]; first compound 0.4 µM
  relative viability: 0.262
[10]; first compound 1.265 µM
  relative viability: 0.178
[10]; first compound 4 µM
  relative viability: 0.353
[11]; first compound 0.04 µM
  relative viability: 0.75
[11]; first compound 0.1265 µM
  relative viability: 0.702
[11]; first compound 0.4 µM
  relative viability: 0.595
[11]; first compound 1.265 µM
  relative viability: 0.704
[11]; first compound 4 µM
  relative viability: 0.732
[12]; first compound 0.04 µM
  relative viability: 0.541
[12]; first compound 0.1265 µM
  relative viability: 0.514
[12]; first compound 0.4 µM
  relative viability: 0.531
[12]; first compound 1.265 µM
  relative viability: 0.503
[12]; first compound 4 µM
  relative viability: 0.575
[13]; first compound 0.04 µM
  relative viability: 1.08
[13]; first compound 0.1265 µM
  relative viability: 1.04
[13]; first compound 0.4 µM
  relative viability: 1.19
[13]; first compound 1.265 µM
  relative viability: 1.08
[13]; first compound 4 µM
  relative viability: 0.971
[14]; first compound 0.04 µM
  relative viability: 0.975
[14]; first compound 0.1265 µM
  relative viability: 1
[14]; first compound 0.4 µM
  relative viability: 0.997
[14]; first compound 1.265 µM
  relative viability: 1.04
[14]; first compound 4 µM
  relative viability: 0.991
[15]; first compound 0.04 µM
  relative viability: 1.23
[15]; first compound 0.1265 µM
  relative viability: 0.934
[15]; first compound 0.4 µM
  relative viability: 0.978
[15]; first compound 1.265 µM
  relative viability: 0.996
[15]; first compound 4 µM
  relative viability: 0.941
[16]; first compound 0.04 µM
  relative viability: 0.618
[16]; first compound 0.1265 µM
  relative viability: 0.62
[16]; first compound 0.4 µM
  relative viability: 0.627
[16]; first compound 1.265 µM
  relative viability: 0.553
[16]; first compound 4 µM
  relative viability: 0.519
[17]; first compound 0.04 µM
  relative viability: 0.923
[17]; first compound 0.1265 µM
  relative viability: 0.94
[17]; first compound 0.4 µM
  relative viability: 1.04
[17]; first compound 1.265 µM
  relative viability: 0.97
[17]; first compound 4 µM
  relative viability: 0.893
[18]; first compound 0.04 µM
  relative viability: 1.1
[18]; first compound 0.1265 µM
  relative viability: 0.96
[18]; first compound 0.4 µM
  relative viability: 1.3
[18]; first compound 1.265 µM
  relative viability: 0.964
[18]; first compound 4 µM
  relative viability: 1.1
[19]; first compound 0.04 µM
  relative viability: 0.714
[19]; first compound 0.1265 µM
  relative viability: 0.75
[19]; first compound 0.4 µM
  relative viability: 0.761
[19]; first compound 1.265 µM
  relative viability: 0.725
[19]; first compound 4 µM
  relative viability: 0.742
[20]; first compound 0.04 µM
  relative viability: 0.88
[20]; first compound 0.1265 µM
  relative viability: 0.741
[20]; first compound 0.4 µM
  relative viability: 1.09
[20]; first compound 1.265 µM
  relative viability: 0.824
[20]; first compound 4 µM
  relative viability: 0.876
[21]; first compound 0.04 µM
  relative viability: 1.11
[21]; first compound 0.1265 µM
  relative viability: 1.05
[21]; first compound 0.4 µM
  relative viability: 1.19
[21]; first compound 1.265 µM
  relative viability: 1.1
[21]; first compound 4 µM
  relative viability: 1.05
[22]; first compound 0.04 µM
  relative viability: 1.01
[22]; first compound 0.1265 µM
  relative viability: 0.972
[22]; first compound 0.4 µM
  relative viability: 1.01
[22]; first compound 1.265 µM
  relative viability: 0.941
[22]; first compound 4 µM
  relative viability: 1.01
[23]; first compound 0.04 µM
  relative viability: 0.75
[23]; first compound 0.1265 µM
  relative viability: 0.598
[23]; first compound 0.4 µM
  relative viability: 0.749
[23]; first compound 1.265 µM
  relative viability: 0.79
[23]; first compound 4 µM
  relative viability: 0.667
